According to BindingDB's records for patent US9796704 (SYMPHONY EVOLUTION, INC., 2017):
pIC50: −log10 of the molar value.

Tests used:
Experiment in all cases: AlphaScreen Assay
[1] = molecular target: Receptor tyrosine-protein kinase erbB-2 (Homo sapiens, UniProt P04626)
Experimental: (§1) In AlphaScreen, when the donor and acceptor beads are close in proximity, a series of photochemical events will give rise to a fluorescent signal upon light activation. Here we use biotinylated poly-(Glu, Tyr) 4:1 as the kinase substrate, streptavidin-coated donor beads and anti-phosphortyrosine antibody PY100-coated acceptor beads. […] Compounds, ATP, biotinylated poly-(Glu, Tyr) and kinases are mixed in a volume of 20 μL for 1 hr at ambient temperature using Greiner 384-well white clear bottom medium binding plates. Then 10 uL solution containing 15-30 mg/mL AlphaScreen beads, 75 mM Hepes, pH 7.4, 300 mM NaCl, 120 mM EDTA, 0.3% BSA and 0.03% Tween-20 is added to each well. After 2-16 hr incubation of the beads, plates are read in a Perkin Elmer AlphaQuest reader (available from PerkinElmer Life and Analytical Sciences, Inc., of Boston Mass.).

[2] = molecular target: Vascular endothelial growth factor receptor 1 (Homo sapiens, UniProt P17948)
Experimental: as §1

Ephrin type-A receptor 2 = Ephrin type-A receptor 2 (Homo sapiens, UniProt P29317)
Experimental: as §1

Ephrin type-B receptor 4 = molecular target: T1, Ephrin type-B receptor 4 (Homo sapiens, UniProt P54760)
T1 sequence (P54760 whole entry): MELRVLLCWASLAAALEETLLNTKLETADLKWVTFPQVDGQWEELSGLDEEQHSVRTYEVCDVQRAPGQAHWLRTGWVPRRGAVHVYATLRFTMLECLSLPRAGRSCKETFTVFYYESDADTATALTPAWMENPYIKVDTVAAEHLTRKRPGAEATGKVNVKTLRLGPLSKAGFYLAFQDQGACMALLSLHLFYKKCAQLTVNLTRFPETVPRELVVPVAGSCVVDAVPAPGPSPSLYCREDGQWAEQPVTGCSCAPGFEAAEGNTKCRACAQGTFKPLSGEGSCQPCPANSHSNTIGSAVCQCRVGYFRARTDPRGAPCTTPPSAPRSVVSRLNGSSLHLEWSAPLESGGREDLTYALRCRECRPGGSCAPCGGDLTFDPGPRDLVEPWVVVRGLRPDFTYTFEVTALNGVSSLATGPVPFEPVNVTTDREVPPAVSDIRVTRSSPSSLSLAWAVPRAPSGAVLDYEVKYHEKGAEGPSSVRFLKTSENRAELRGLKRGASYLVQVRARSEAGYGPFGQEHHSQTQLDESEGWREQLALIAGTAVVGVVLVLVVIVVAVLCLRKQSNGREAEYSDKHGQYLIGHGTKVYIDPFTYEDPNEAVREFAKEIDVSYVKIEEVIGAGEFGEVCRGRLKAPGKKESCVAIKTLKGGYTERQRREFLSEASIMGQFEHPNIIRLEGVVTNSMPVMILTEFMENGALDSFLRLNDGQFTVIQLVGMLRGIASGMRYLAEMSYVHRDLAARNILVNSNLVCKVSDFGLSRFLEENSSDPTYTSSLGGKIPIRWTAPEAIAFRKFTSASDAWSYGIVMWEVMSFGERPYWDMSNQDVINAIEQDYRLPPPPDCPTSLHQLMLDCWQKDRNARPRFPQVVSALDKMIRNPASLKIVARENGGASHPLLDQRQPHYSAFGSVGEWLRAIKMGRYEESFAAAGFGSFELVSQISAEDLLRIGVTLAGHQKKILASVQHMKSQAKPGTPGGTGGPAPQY
Experimental: as §1

[3] = molecular target: Vascular endothelial growth factor receptor 2 (Homo sapiens, UniProt P35968)
Sequence of Vascular endothelial growth factor receptor 2 (P35968 whole entry): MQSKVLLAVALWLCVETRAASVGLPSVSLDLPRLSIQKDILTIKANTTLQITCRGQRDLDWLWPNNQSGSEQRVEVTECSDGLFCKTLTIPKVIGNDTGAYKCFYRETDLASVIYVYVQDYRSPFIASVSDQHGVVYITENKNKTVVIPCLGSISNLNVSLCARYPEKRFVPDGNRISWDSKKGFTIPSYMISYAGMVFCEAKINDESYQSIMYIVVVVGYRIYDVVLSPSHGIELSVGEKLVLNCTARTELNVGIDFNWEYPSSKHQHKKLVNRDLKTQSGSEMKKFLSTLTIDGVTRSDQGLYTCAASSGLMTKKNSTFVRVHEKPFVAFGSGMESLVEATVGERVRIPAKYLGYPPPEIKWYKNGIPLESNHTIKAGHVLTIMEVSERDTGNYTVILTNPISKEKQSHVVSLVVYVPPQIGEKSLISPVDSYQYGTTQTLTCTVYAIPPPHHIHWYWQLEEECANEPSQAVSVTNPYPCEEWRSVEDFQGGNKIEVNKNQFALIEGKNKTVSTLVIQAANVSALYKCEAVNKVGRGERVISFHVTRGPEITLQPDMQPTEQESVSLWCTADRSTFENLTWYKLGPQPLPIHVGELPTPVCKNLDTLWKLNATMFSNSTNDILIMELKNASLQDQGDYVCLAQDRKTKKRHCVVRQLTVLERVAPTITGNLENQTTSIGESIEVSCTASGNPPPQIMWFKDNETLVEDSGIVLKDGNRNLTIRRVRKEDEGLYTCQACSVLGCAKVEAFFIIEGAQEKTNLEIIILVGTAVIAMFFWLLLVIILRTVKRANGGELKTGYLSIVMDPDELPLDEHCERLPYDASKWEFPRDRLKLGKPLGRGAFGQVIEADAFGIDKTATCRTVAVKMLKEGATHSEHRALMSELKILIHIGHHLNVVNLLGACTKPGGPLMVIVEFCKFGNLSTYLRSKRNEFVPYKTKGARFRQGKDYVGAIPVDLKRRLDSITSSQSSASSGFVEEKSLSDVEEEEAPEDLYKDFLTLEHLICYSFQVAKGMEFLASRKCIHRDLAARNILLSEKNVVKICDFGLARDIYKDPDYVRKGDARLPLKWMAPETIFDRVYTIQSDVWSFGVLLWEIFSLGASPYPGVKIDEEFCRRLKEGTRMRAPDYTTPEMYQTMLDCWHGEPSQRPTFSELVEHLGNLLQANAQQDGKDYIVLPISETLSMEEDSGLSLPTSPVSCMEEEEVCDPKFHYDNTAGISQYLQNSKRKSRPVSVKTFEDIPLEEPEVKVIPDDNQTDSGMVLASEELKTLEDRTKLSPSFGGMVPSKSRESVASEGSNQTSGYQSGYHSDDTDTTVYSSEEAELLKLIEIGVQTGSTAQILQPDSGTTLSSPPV
Experimental: as §1

Sequence of Vascular endothelial growth factor receptor 1 (P17948 whole entry): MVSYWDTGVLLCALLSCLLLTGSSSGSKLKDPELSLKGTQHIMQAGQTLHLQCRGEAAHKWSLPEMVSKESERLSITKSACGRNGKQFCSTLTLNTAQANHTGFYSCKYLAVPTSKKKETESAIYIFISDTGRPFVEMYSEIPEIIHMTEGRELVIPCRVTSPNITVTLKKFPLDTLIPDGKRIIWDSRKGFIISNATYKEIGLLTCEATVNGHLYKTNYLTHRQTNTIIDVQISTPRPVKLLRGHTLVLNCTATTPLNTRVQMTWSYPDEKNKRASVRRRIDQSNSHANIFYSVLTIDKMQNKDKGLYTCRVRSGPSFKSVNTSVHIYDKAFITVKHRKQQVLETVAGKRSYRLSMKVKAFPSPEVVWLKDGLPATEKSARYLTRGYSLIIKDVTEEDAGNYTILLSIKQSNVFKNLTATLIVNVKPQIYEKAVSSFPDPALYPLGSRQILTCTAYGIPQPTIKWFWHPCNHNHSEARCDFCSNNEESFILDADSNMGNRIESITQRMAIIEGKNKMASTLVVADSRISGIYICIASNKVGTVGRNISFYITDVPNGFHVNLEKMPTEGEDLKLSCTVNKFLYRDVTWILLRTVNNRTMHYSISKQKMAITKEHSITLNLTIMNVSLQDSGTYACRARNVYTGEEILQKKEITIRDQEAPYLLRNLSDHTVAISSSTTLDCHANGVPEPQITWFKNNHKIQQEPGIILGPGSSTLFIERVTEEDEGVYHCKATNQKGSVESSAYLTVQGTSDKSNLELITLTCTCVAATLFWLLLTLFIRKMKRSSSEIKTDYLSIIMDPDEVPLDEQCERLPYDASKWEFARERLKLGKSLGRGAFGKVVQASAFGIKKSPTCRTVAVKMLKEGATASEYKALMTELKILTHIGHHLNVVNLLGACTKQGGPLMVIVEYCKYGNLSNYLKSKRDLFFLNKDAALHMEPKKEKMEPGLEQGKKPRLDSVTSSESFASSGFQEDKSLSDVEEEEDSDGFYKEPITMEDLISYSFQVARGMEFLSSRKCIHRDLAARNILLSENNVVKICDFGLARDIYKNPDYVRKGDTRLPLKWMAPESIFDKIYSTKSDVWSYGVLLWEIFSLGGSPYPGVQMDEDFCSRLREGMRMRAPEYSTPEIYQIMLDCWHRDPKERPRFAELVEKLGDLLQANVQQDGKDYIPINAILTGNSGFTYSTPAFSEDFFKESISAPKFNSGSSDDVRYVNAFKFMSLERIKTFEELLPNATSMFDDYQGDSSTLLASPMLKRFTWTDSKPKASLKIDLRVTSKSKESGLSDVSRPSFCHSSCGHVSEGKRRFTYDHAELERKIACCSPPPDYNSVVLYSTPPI
Sequence of Ephrin type-A receptor 2 (P29317 whole entry): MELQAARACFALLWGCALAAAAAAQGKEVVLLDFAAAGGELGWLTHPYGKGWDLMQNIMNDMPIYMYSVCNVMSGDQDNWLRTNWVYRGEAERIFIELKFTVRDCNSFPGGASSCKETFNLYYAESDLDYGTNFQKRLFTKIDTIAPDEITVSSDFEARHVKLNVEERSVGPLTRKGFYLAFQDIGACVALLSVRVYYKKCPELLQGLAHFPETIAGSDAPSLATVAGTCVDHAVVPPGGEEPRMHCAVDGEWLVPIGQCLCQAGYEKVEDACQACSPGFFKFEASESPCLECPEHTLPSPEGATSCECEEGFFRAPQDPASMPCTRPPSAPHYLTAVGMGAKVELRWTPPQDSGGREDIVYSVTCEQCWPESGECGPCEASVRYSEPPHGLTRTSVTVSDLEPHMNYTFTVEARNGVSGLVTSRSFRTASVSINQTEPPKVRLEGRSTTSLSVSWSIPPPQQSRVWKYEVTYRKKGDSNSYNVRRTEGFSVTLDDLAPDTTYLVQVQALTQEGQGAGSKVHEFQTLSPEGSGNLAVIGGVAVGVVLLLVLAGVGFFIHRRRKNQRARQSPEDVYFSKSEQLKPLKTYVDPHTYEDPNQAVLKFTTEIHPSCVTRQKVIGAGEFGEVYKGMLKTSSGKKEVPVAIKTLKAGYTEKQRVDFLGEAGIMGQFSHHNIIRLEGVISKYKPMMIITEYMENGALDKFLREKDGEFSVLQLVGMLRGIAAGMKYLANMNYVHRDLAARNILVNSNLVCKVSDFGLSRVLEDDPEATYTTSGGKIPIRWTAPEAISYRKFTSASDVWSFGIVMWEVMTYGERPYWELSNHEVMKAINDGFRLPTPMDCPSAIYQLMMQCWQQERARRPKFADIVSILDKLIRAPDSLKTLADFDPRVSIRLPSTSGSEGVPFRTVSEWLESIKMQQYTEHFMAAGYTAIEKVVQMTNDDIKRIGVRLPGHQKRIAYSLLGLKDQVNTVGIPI
Sequence of Receptor tyrosine-protein kinase erbB-2 (P04626 whole entry): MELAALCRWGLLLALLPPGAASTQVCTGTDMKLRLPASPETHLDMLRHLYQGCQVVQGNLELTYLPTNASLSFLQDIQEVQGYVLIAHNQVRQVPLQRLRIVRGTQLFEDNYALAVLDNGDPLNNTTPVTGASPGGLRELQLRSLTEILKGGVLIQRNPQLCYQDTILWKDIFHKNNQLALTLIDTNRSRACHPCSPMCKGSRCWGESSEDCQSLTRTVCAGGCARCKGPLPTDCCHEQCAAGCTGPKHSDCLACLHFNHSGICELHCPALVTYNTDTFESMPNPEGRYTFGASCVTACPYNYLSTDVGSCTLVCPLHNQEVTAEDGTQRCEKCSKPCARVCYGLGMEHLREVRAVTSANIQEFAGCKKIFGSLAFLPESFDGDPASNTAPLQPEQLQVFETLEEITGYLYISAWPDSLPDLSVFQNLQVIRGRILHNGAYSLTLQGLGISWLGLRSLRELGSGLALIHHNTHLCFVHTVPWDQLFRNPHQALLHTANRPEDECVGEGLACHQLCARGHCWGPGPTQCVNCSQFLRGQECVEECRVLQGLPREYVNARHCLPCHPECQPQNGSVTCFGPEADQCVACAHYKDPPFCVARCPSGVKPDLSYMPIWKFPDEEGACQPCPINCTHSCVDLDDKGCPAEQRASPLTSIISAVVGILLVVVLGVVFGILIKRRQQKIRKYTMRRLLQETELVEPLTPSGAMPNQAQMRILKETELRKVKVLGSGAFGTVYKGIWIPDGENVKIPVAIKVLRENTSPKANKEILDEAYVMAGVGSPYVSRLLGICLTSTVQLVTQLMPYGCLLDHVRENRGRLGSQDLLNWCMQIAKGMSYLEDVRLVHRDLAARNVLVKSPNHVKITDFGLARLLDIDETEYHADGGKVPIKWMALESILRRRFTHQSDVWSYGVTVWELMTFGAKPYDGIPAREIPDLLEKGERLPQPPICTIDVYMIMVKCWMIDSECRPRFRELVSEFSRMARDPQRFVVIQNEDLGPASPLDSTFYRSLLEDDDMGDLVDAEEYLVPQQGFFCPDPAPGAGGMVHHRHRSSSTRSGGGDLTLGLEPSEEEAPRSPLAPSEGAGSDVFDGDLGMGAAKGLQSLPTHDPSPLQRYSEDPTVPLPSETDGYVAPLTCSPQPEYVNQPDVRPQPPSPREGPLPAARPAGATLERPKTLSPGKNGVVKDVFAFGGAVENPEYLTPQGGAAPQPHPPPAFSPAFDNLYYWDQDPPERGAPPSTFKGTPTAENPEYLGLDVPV

| pIC50 [1] | IC50 [2] | IC50 (Ephrin type-A receptor 2) | pIC50 (Ephrin type-B receptor 4) | IC50 [1] | IC50 [3] | IC50 (Ephrin type-B receptor 4) | pIC50 [2] | pIC50 [3] | Compound |
| --- | --- | --- | --- | --- | --- | --- | --- | --- | --- |
| > 7.30 | in the range around 525 nM |  |  |  |  |  |  |  | COc1cc2c(Nc3ccc(Cl)c(Cl)c3F)ncnc2cc1OC[C@@H]1C[C@@H]2CN(C(C)C)C[C@@H]2C1 [US9796704, Entry 1] |
|  |  | in the range around 0.525 µM | > 7.30 | in the range around 525 nM | in the range around 0.525 µM |  |  |  | COc1cc2c(Nc3ccc(Br)c(Cl)c3F)ncnc2cc1OC[C@@H]1C[C@@H]2CN(S(C)(=O)=O)C[C@@H]2C1 [US9796704, Entry 6] |
|  |  | in the range around 0.525 µM |  | in the range around 525 nM | in the range around 0.525 µM | in the range around 525 nM |  |  | COc1cc2c(Nc3ccc(Cl)c(Cl)c3F)ncnc2cc1OC[C@H]1C[C@@H]2CN(C)C[C@@H]2C1 [US9796704, Entry 9] |
|  | in the range around 525 nM |  |  | in the range around 525 nM |  |  |  |  | COc1cc2c(Nc3ccc(Br)c(Cl)c3F)ncnc2cc1OC[C@H]1C[C@@H]2CN(C)C[C@@H]2C1 [US9796704, Entry 10] |
|  | in the range around 525 nM |  |  | in the range around 525 nM |  |  |  |  | COc1cc2c(Nc3ccc(F)c(Cl)c3F)ncnc2cc1OC[C@H]1C[C@@H]2CN(C)C[C@@H]2C1 [US9796704, Entry 11] |
| > 7.30 |  |  |  |  |  |  | > 7.30 |  | COc1cc2c(Nc3cc(Cl)c(Cl)cc3F)ncnc2cc1OC[C@H]1C[C@@H]2CN(C)C[C@@H]2C1 [US9796704, Entry 12] |
| > 7.30 |  |  |  |  |  |  | > 7.30 |  | COc1cc2c(Nc3cc(Cl)c(Br)cc3F)ncnc2cc1OC[C@H]1C[C@@H]2CN(C)C[C@@H]2C1 [US9796704, Entry 13] |
|  | in the range around 525 nM |  |  | in the range around 525 nM |  |  |  |  | COc1cc2c(Nc3ccc(Br)c(Cl)c3Cl)ncnc2cc1OC[C@H]1C[C@@H]2CN(C)C[C@@H]2C1 [US9796704, Entry 14] |
| > 7.30 | in the range around 525 nM |  |  |  |  |  |  |  | COc1cc2c(Nc3ccc(Cl)c(Cl)c3)ncnc2cc1OC[C@H]1C[C@@H]2CN(C)C[C@@H]2C1 [US9796704, Entry 15] |
|  | in the range around 525 nM | in the range around 0.525 µM |  | in the range around 525 nM | in the range around 0.525 µM |  |  |  | CCN1C[C@H]2C[C@@H](COc3cc4ncnc(Nc5ccc(Br)c(Cl)c5F)c4cc3OC)C[C@H]2C1 [US9796704, Entry 16] |
|  |  |  |  | in the range around 525 nM |  |  | > 7.30 |  | COc1cc2c(Nc3ccc(Br)c(Cl)c3Cl)ncnc2cc1OC[C@@H]1CN2CCOCC2CO1 (stereo partly drawn) [US9796704, Entry 27] |
| > 7.30 |  |  |  |  |  | in the range around 525 nM |  |  | COc1cc2c(Nc3ccc(Br)c(Cl)c3F)ncnc2cc1OC[C@@H]1CN2CCC[C@H]2CO1 [US9796704, Entry 37] |
|  | in the range around 525 nM |  |  | in the range around 525 nM |  |  |  |  | COc1cc2c(Nc3cc(Cl)c(Br)cc3F)ncnc2cc1OCC1CO[C@@H]2[C@@H](OC)CO[C@H]12 (stereo partly drawn) [US9796704, Entry 41] |
|  | in the range around 525 nM |  |  | in the range around 10500 nM |  |  |  |  | COc1cc2c(Nc3ccc(Br)c(Cl)c3F)ncnc2cc1OCC1CO[C@@H]2[C@@H](OC)CO[C@H]12 (stereo partly drawn) [US9796704, Entry 44] |
|  | in the range around 10500 nM | in the range around 10.5 µM |  |  | in the range around 10.5 µM |  |  |  | COc1cc2c(Nc3ccc(Cl)c(Cl)c3F)ncnc2cc1OC[C@@H]1CN2CCC[C@H]2C(=O)N1 [US9796704, Entry 51] |
|  | in the range around 10500 nM | in the range around 10.5 µM |  |  | in the range around 10.5 µM |  |  |  | COc1cc2c(Nc3ccc(Cl)c(Cl)c3F)ncnc2cc1OC[C@@H]1CN2CCC[C@@H]2C(=O)N1 [US9796704, Entry 52] |
|  | in the range around 10500 nM | in the range around 10.5 µM |  |  | in the range around 10.5 µM |  |  |  | COc1cc2c(Nc3ccc(Cl)c(Cl)c3)ncnc2cc1OCC1CN2CSC[C@H]2CO1 (stereo partly drawn) [US9796704, Entry 56] |
|  |  |  |  | in the range around 10500 nM |  |  | < 4.70 | < 4.70 | COc1cc2c(Nc3ccc(Br)c(Cl)c3Cl)ncnc2cc1O[C@H]1CO[C@H]2[C@@H]1OC[C@@H]2OC [US9796704, Entry 66] |
|  |  | in the range around 0.525 µM |  | in the range around 525 nM | in the range around 0.525 µM | in the range around 525 nM |  |  | COc1cc2c(Nc3ccc(F)c(F)c3)ncnc2cc1O[C@@H]1CO[C@@H]2[C@H]1OC[C@H]2F [US9796704, Entry 111] |
|  |  | in the range around 0.525 µM | > 7.30 |  | in the range around 0.525 µM |  |  |  | COc1cc2c(Nc3ccc(Cl)c(Cl)c3)ncnc2cc1OC[C@@H]1O[C@@H](OC)[C@@H](O)[C@H](O)[C@H]1O [US9796704, Entry 194] |
|  |  | in the range around 0.525 µM |  |  | in the range around 0.525 µM | in the range around 525 nM |  |  | COc1cc2c(Nc3ccc(Cl)c(Cl)c3)ncnc2cc1OCc1noc(COCc2ccccc2)n1 [US9796704, Entry 211] |
|  |  | in the range around 10.5 µM |  | in the range around 10500 nM | in the range around 10.5 µM | in the range around 525 nM |  |  | CCN1CCCC1c1noc(COc2cc3ncnc(Nc4ccc(Cl)c(Cl)c4)c3cc2OC)n1 (stereo not drawn) [US9796704, Entry 255] |
|  |  | in the range around 10.5 µM |  | in the range around 10500 nM | in the range around 10.5 µM | in the range around 525 nM |  |  | CCN1CCCC1c1nc(COc2cc3ncnc(Nc4ccc(Cl)c(Cl)c4)c3cc2OC)cs1 (stereo not drawn) [US9796704, Entry 256] |
|  |  | in the range around 10.5 µM |  | in the range around 10500 nM | in the range around 10.5 µM | in the range around 10500 nM |  |  | C=CCCCCN1CCOC(COc2cc3ncnc(Nc4ccc(Cl)c(Cl)c4)c3cc2OC)C1 (stereo not drawn) [US9796704, Entry 274] |
|  |  | in the range around 10.5 µM |  | in the range around 10500 nM | in the range around 10.5 µM | in the range around 10500 nM |  |  | COC(=O)CCN1CCOC(COc2cc3ncnc(Nc4ccc(Cl)c(Cl)c4)c3cc2OC)C1 (stereo not drawn) [US9796704, Entry 276] |

| Compound | pIC50 [1] | IC50 [2] | IC50 (Ephrin type-A receptor 2) | pIC50 (Ephrin type-B receptor 4) | IC50 [1] | IC50 [3] | IC50 (Ephrin type-B receptor 4) | pIC50 [2] | pIC50 [3] |
| --- | --- | --- | --- | --- | --- | --- | --- | --- | --- |
| COc1cc2c(Nc3ccc(Cl)c(Cl)c3)ncnc2cc1OC[C@@H]1CN2CCC[C@H]2CO1 [US9796704, Entry 34] | > 7.30 |  | in the range around 0.525 µM |  |  | in the range around 0.525 µM | in the range around 525 nM |  |  |
| COc1cc2c(Nc3ccc(Cl)c(Cl)c3)ncnc2cc1OC[C@H]1CN2CCC[C@H]2CO1 [US9796704, Entry 35] |  |  | in the range around 0.525 µM |  | in the range around 525 nM |  | in the range around 525 nM |  |  |
| COc1cc2c(Nc3ccc(Cl)c(Cl)c3)ncnc2cc1OCCNC1CC2CCC(C1)N2C (stereo not drawn) [US9796704, Entry 55] |  | in the range around 10500 nM | in the range around 10.5 µM |  | in the range around 525 nM |  |  |  |  |
| COc1cc2c(Nc3ccc(Cl)c(Cl)c3)ncnc2cc1OCC1CC2CCC(C1)N2C (stereo not drawn) [US9796704, Entry 58] |  | in the range around 10500 nM |  |  |  |  |  |  |  |
